Measured values: ChEMBL document CHEMBL1152243, “Preliminary SAR studies on non-apamin-displacing 4-(aminomethylaryl)pyrrazolopyrimidine K(Ca) channel blockers” (Bioorg Med Chem Lett, 2008)
Active and inactive are the calls of the source. The calls are words filed in the database; no cut-off is given here.

What was measured:
Assay type in all cases: cell-based
[1] = target: T1, Small conductance calcium-activated potassium channel protein 3 (Homo sapiens, UniProt Q9UGI6); experiment: Inhibition of Kca2.3 channel expressed in HEK293 cells by thallium flux assay
[2] = target: T1, Small conductance calcium-activated potassium channel protein 3; experiment: Inhibition of Kca2.3 channel expressed in HEK293 cells at 30 uM by thallium flux assay
[3] = target: T1, Small conductance calcium-activated potassium channel protein 3; experiment: Inhibition of Kca2.3 channel expressed in HEK293 cells by electrophysiology assay
[4] = target: Small conductance calcium-activated potassium channel protein 2 (Homo sapiens, UniProt Q9H2S1); experiment: Inhibition of Kca2.2 channel expressed in HEK293 cells by thallium flux assay
[5] = target: Small conductance calcium-activated potassium channel protein 1 (Homo sapiens, UniProt Q92952); experiment: Inhibition of Kca2.1 channel expressed in HEK293 cells by thallium flux assay
[6] = target: T1, Small conductance calcium-activated potassium channel protein 3; experiment: Displacement of [125I]apamin from Kca2.3 channel expressed in HEK293 cells by scintillation proximity assay

T1 sequence (Q9UGI6 whole entry): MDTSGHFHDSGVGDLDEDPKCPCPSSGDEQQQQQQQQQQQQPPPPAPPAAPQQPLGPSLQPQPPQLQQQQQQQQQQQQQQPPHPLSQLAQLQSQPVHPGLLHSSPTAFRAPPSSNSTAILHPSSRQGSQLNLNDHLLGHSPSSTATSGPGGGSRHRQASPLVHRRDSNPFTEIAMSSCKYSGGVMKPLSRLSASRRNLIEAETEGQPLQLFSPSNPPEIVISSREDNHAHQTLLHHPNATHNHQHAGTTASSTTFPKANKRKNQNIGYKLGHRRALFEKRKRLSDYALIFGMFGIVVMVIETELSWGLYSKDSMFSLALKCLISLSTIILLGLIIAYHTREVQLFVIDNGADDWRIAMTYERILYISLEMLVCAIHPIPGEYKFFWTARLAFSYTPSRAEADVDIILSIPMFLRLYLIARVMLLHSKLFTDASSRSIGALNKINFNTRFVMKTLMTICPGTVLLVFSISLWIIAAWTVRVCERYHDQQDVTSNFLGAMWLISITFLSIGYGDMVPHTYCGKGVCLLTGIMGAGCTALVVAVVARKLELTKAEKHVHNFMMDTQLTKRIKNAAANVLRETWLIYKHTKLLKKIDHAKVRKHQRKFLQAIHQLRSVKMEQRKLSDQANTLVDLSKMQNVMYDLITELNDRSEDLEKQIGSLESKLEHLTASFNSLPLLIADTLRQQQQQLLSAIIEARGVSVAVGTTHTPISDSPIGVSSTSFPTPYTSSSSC
Sequence of Small conductance calcium-activated potassium channel protein 2 (Q9H2S1 whole entry): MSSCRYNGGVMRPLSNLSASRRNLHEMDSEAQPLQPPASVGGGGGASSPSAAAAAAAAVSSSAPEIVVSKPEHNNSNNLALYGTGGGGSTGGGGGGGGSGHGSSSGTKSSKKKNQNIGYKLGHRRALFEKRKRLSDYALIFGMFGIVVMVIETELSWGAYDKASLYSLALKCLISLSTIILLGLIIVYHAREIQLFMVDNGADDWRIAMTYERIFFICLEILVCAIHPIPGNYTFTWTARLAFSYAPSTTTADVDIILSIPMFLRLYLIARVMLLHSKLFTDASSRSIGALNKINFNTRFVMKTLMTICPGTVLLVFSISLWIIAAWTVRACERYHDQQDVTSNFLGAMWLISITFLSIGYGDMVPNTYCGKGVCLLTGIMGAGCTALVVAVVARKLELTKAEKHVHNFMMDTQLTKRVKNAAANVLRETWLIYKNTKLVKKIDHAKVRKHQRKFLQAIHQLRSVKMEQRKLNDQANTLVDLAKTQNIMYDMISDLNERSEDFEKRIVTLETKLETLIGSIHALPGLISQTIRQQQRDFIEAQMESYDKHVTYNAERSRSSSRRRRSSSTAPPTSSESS
Sequence of Small conductance calcium-activated potassium channel protein 1 (Q92952 whole entry): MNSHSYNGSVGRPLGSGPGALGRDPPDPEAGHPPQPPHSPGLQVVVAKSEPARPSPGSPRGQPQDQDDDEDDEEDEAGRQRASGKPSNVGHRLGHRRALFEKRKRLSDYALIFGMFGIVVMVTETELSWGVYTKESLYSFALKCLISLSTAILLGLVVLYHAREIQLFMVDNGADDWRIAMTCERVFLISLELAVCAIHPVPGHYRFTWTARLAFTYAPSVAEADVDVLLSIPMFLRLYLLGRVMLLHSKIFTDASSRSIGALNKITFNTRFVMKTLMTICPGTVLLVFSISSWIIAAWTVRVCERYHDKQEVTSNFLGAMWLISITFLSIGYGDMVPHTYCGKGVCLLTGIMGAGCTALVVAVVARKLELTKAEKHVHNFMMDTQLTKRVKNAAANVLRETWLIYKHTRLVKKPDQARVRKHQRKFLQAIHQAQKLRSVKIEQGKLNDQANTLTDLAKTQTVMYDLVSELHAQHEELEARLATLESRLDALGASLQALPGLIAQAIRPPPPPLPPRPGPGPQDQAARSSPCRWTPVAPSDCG

Row | Structure (SMILES) | IC50 [1] | inhibition [2] | other results
1 | FC(F)(F)Oc1ccc(CNc2cc(Cl)nc3ccnn23)cc1 | 15.4 µM | 62% | 
2 | COc1ccccc1CNc1cc(Cl)nc2ccnn12 | 15.9 µM | 74% | 
3 | O=[N+]([O-])c1ccc(CNc2cc(Cl)nc3ccnn23)cc1 | > 30 µM | 25% | 
4 | Clc1cc(NCc2ccc(Oc3ccccc3)cc2)n2nccc2n1 | > 30 µM | 23% | 
5 | FC(F)(F)c1ccc(CNc2cc(Cl)nc3ccnn23)cc1 | > 30 µM | 43% | 
6 | Cc1ccc(CNc2cc(Cl)nc3ccnn23)cc1 | > 30 µM | 46% | 
7 | Clc1cc(Cl)cc(CNc2cc(Cl)nc3ccnn23)c1 | > 30 µM | 43% | 
8 | FC(F)(F)c1cccc(CNc2cc(Cl)nc3ccnn23)c1 | 14.6 µM | 80% | 
9 | Clc1cc(NCc2ccccc2Cl)n2nccc2n1 | 19.1 µM | 62% | 
10 | C[C@H](Nc1cc(Cl)nc2ccnn12)c1ccccc1 |  |  | Activity [1]: inactive
11 | Clc1cc(NCc2ccncc2)n2nccc2n1 |  |  | Activity [1]: inactive
12 | Clc1cc(NCc2ccc(Cl)c(Cl)c2)n2nccc2n1 | > 30 µM | 25% | 
13 | FC(F)(F)c1ccccc1CNc1cc(Cl)nc2ccnn12 | > 30 µM | 50% | 
14 | Clc1ccc(CNc2cc(Cl)nc3ccnn23)cc1 | > 30 µM | 30% | 
15 | Cc1ccccc1CNc1cc(Cl)nc2ccnn12 | 14.6 µM | 75% | 

Further molecules by falling IC50 [1], results first:

Row | IC50 [1] | inhibition [2] | Structure (SMILES) | other results
16 | 11 µM | 71% | FC(F)(F)Oc1cccc(CNc2cc(Cl)nc3ccnn23)c1 | 
17 | 10.7 µM | 91% | Cc1cccc(CNc2cc(Cl)nc3ccnn23)c1 | 
18 | 10 µM | 87% | FC(F)(F)Oc1ccccc1CNc1cc(Cl)nc2ccnn12 | 
19 | 7.9 µM | 96% | O=[N+]([O-])c1cccc(CNc2cc(Cl)nc3ccnn23)c1 | 
20 | 7.5 µM |  | Clc1cc(NC(Cc2ccccc2)c2ccccc2)n2nccc2n1 (stereo unspecified) | 
21 | 5.2 µM | 113% | Clc1cccc(CNc2cc(Cl)nc3ccnn23)c1 | 
22 | 1.1 µM | 113% | Clc1cc(NCc2ccccc2)n2nccc2n1 | IC50 [3]: 1.6 µM; IC50 [4]: 1.1 µM; IC50 [5]: 1.19 µM
23 | 1 µM |  | C[C@@H](Nc1cc(Cl)nc2ccnn12)c1ccccc1 | 
24 | 0.35 µM | 105% | Clc1cc(NCc2cccs2)n2nccc2n1 | IC50 [3]: 0.58 µM; Activity [6]: inactive; IC50 [4]: 0.53 µM; IC50 [5]: 0.3 µM
